One assay deals with T1, glucosidase I (Cricetulus griseus, UniProt A0A9J7K0I4).
T1 construct: endogenous in cells; host or cells: CHO-K1, transfected line 2.14 (the transfected gene is hsCD2, not glucosidase I)
T1 sequence (A0A9J7K0I4 1-834): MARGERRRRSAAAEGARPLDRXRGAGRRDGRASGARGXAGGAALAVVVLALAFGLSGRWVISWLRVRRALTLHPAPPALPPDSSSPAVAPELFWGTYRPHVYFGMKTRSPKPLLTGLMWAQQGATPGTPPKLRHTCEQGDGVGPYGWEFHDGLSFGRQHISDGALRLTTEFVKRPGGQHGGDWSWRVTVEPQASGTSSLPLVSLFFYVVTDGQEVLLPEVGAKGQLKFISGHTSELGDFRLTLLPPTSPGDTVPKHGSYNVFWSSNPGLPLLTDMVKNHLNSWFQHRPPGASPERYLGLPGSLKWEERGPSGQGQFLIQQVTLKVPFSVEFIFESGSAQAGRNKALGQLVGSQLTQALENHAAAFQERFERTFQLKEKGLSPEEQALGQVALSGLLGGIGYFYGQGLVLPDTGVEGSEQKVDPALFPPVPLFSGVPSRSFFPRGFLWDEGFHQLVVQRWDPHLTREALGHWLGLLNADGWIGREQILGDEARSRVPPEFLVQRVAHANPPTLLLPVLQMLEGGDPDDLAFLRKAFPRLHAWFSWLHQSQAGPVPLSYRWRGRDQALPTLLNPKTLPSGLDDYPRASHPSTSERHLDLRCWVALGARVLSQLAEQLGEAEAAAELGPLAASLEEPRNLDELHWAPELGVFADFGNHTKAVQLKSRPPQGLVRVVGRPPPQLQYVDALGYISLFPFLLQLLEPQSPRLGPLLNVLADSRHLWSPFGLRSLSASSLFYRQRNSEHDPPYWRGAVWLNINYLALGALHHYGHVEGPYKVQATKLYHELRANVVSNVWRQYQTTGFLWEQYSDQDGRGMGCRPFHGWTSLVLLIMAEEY
Kind of assay: Endo H sensitivity of hsCD2 secreted by transfected CHO-K1 cells (line 2.14) cultured with NB-DNJ. The class given is cell-based, Chinese hamster. How it is done: In initial optimization tests with NB-DNJ, 2×500 cm^2 flasks (Nunc) were seeded with line 2.14 cells in 75 ml glutamine-free medium GMEM-S (Gibco Ltd, Glasgow, U.K.) 10% Fetal Calf Serum (FCS) containing NB-DNJ at 0 mM, 0.5 mM, 1 mM, 1.5 mM or 2 mM. After 6 days 100 mls of CB2, 10% FCS containing sodium butyrate to give a final concentration of 2 mM and NB-DNJ at 0, 0.5 mM, 1 mM, 1.5 mM or 2 mM was added. Ten days after the addition of the butyrate, 0.5 ml samples of the supernatant were taken for comparison of secretion levels. The cultures were left for a total of 15 days before harvesting the supernatants. When large amounts of endo H treated hsCD2 were required for crystallization, the cells were grown to confluence in cell factories as described above and NB-DNJ was added with the sodium butyrate to a final concentration of 1.5 mM. These cultures were also left for a further 3-4 weeks prior to harvesting.
For analysis of endo H sensitivity after preparation of the hsCD2 in the presence of various concentrations of NB-DNJ, 10 μg aliquots of the purified glycoproteins were incubated with 4, 20 or 100 mU/ml endo H-(Boehringer Mannheim) in 30 μl of 100 mM sodium acetate, pH 5.2. One unit (U) of endo H is the enzyme activity which hydrolyzes one micromole […] of dansyl-Asn-(GlcNAc)2 -(Man)5 within one minute at 37° C., pH 5.5. After incubation overnight at 370 the digested samples were boiled in 1% SDS under reducing conditions prior to electrophoresis in 15% SDS-PAGE gels. For large-scale endo H treatment of hsCD2 for crystallization tests, 4 mgs of the purified glycoprotein was concentrated to 1-2 mg/ml in 0.1 M sodium acetate, pH 5.2, and then digested with 100 mU/ml endo H overnight at 370. […] The eluting protein was determined to be essentially free of contaminating hsCD2 bearing non-endo H sensitive oligosaccharides by SDS-PAGE on a 15% acrylamide gel. […]

Assay [1] relates to CHO-K1 line 2.14 cells secreting hsCD2. The assay can be described thus: Quantitative assay of hsCD2 expression level in line 2.14 cells cultured with NB-DNJ. To be noted: 0.5-2 mM NB-DNJ. In kind it is cell-based, Chinese hamster. How it is done:
For the expression of hsCD2, the Xba I-Bam H1 fragment was sub-cloned into the polylinker of pEE6.hcmv-GS (Bebbington and Hentschel, 1987; Davis et al., 1990). The expression construct (20 μg) was transfected with calcium phosphate into CHO-K1 cells and methionine sulfoximine-resistant clones were selected as described previously (Davis et al., 1990). To detect expression the conventional solid-phase, radioactive inhibition binding assay (Barclay and Ward, 1982) was used. This utilized human sCD2 domain 1 expressed as a fusion protein as described for rat CD2 domain 1 (Driscoll et al., 1991) adsorbed onto vinyl microtitre plates as a binding target and monitored inhibition of the binding of the anti-human CD2 mAb, X3 mAb to the plate; the bound mAb was detected with [I^125 ]-labelled rabbit anti-mouse F(ab'). For large scale production the highest-expressing cell line (line 2.14) was grown to confluence in cell factories (Nunc) and sodium butyrate was then added to a final concentration of 2 mM. The cultures were then left for a further 3-4 weeks prior to harvesting.
In initial optimization tests with NB-DNJ, 2×500 cm^2 flasks (Nunc) were seeded with line 2.14 cells in 75 ml glutamine-free medium GMEM-S (Gibco Ltd, Glasgow, U.K.) 10% Fetal Calf Serum (FCS) containing NB-DNJ at 0 mM, 0.5 mM, 1 mM, 1.5 mM or 2 mM. […]

We go through 1 molecule from patent US6069235A, “Method for carbohydrate engineering of glycoproteins” (Monsanto Company, priority 1994, dated 2000).

In the case of `CCCCN1C[C@H](O)[C@@H](O)[C@H](O)[C@H]1CO` [NB-DNJ, N-butyl deoxynojirimycin], the “oligosaccharides of hsCD2 converted to endo H sensitive structures” value at glucosidase I (N-butyldeoxynojirimycin added to cultures of non-mutant CHO cells) is listed as greater than 85%. In addition, the “inhibition of glucosidase I (judged by endo H sensitivity of hsCD2)” value against glucosidase I (NB-DNJ 1.5 mM in culture of line 2.14 CHO cells) is given as “complete”. The “hsCD2 remaining endo H resistant (densitometric analysis of gel)” value on glucosidase I (highest concentration of NB-DNJ (2 mM)) was “approximately 15%”. Besides, the “reduction in expression of hsCD2” value in assay [1] is reported as “three- to four-fold reduction in expression”.
